The values that follow come from patent US7888355B2, “Compositions and methods for inhibiting growth and metastasis of melanoma” (Burnham Institute for Medical Research, priority 2007, dated 2011).

One series has as its system normal mouse melanocytes. Kind of series: Normal melanocyte viability, ATPLITE. The settings on record: 0.1 μM, 20 h. The format is cell-based. The protocol: Cell lines. Mouse melanoma (SW1) and human melanoma (LU1205) cells were maintained in DMEM supplemented with 10% FBS, L-glutamine and antibiotics. The human melanoma cell lines MEWO and WM115 were maintained in RPMI supplemented with 10% FBS and antibiotics. Primary mouse melanocytes were cultured in F-12 media supplemented with 10% FBS, antibiotics, IBMX (isobuthyl-methylxantine), bovine pituitary extract, and TPA.
Mitochondrial activity and apoptosis. Cells were exposed to the chemicals for 12-48 hours as indicated in Results. To measure changes in mitochondrial activity reflective of general cell viability, the ATPLITE ATP detection assay was used according to the manufacturer's recommendations (Perkin Elmer). Apoptosis analysis was performed by flow cytometry of PI-stained cells. The percentage of cells to the left of the diploid G0/1 peak, characteristic of hypodiploid cells that have partially lost DNA, was calculated as percentage of apoptotic cells (Bhoumik et al., PNAS 101:4222-7, 2004). Analysis of changes in Caspase 8 expression pattern was performed using immunoblot analysis.
Characterization of CSL and AIGA effects on mouse melanoma cells. The structures of AIGA and CSL are depicted in FIGS. 1a and 1b. […] ATP levels were used as an indicator of cell viability and were measured using the ATPLITE ATP detection assay kit. […]
(Cellular ATP, detected with luciferase, serves as a proxy for viable cell number.)

Series [1] has as its system human diploid fibroblasts (IMR90). Kind of series: Toxicity on human diploid fibroblasts. The format is cell-based. The protocol:
Characterization of CSL and AIGA effects on mouse melanoma cells. The structures of AIGA and CSL are depicted in FIGS. 1a and 1b. AIGA was tested for cytotoxicity at concentrations ranging between 0.1 and 2 μM, whereas CSL was used at a concentration of 0.01 to 0.3 μM. SW1 cells or normal melanocytes were seeded on 96 well plates and 24 h late, cells were treated with the indicated concentrations of ATF2 50-100 peptide, AIGA, or CSL for 20 h. ATF2 50-100 peptide (cloned in mammalian expression vector in frame with penetratin was transfected with the aid of lipofectamine) was used as a positive control. ATP levels were used as an indicator of cell viability and were measured using the ATPLITE ATP detection assay kit. The number of surviving cells upon AIGA treatment was normalized to the number of surviving cells under the control treatment, and the normalized number was designated as the “% Viability.” Results shown in FIGS. 1c-1f represent 3 experiments. Treatment of SW1 melanoma cells with 1 μM of AIGA reduced the viability of melanoma cells to 10%, (FIG. 1c). Treatment of the SW1 cells with 0.05 μM of CSL reduced the viability of melanoma cells to 50%, and 0.1 μM reduced it to 10% (FIG. 1d). […] Normal melanocytes and fibroblasts were used as a control.

Series [2] relates to AP1/c-Jun transcriptional activity. Kind of series: TRE-luciferase reporter assay in SW1 cells. The format is cell-based, mouse. The settings on record: 8 h; for AP1/c-Jun transcriptional activity (TRE-Luc): compounds compared with ATF2 peptide; for dose from which c-Jun transcriptional activity is induced: TRE-Luc. The protocol: (§1) Constructs and inhibitors. An ATF2 peptide (aa 51-100) was cloned into HA-tagged pcDNA3 vector as previously described (Bhoumik et al., Cancer Res 64:8222-30, 2004). 5×Jun2tk-Luc (marker for ATF2 transcriptional activities), 5×TRE-tk-Luc (marker for AP1/c-Jun transcriptional activities) and 2×NF-B-Luc were previously described (Bhoumik et al., J Clin Invest 110:643-50, 2002). Pharmacological inhibitor of JNK (SP600125) was purchased (EMD biosciences) and added (5 μM) to cultured cells as indicated in Results.
(§2) Transcriptional analysis. Transient transfection of different reporter constructs into melanoma cells was performed using LIPOFECTAMINE PLUS transfection reagent (Invitrogen). Luciferase activity was determined as previously described (Bhoumik et al., PNAS 101:4222-7, 2004).
The effects of the two compounds on c-Jun transcriptional activity in mouse melanoma SW1 cells was assessed. SW1 cells were transfected with the TRE-luciferase plasmid and 24 h later, cells were treated with the indicated concentrations of AIGA or CSL for 8 h before proteins were prepared and level of luciferase activity was measured. ATF250-100 peptide was used as a positive control. Data shown represent results from 3 experiments. […] AIGA induced c-Jun transcriptional activity at doses starting from 0.1 μM (FIG. 2a).
In general terms: In a reporter assay the amount or activity of a reporter protein is the signal.

The test system of series [3] is ATF2 transcriptional activity. As to the kind of experiment: Jun2-luciferase reporter assay in SW1 cells. The settings on record: Mus musculus, Jun2-Luc, 8 h, read-out: concentration required to cause about 50% inhibition of ATF2 transcriptional activity. The format is cell-based. As to the method:
as §1, §2
These compounds were next assessed for their impact on ATF2 transcriptional activity. The effect of AIGA on ATF2 transcriptional activities was measured by the Jun2-luciferase assay. SW1 cells were transfected with the Jun2-luciferase plasmid and 24 h later cells were treated with the indicated concentrations of AIGA or CSL for 8 h before proteins were prepared and level of luciferase activity was measured. ATF2 51-100 peptide was used as a positive control. Data shown represent results from 3 experiments. […]

The next series deals with phosphorylation of c-Jun. As to the kind of experiment: Western blot for c-Jun phosphorylation in SW1 cells. The format is cell-based, mouse. The following applies: AIGA 0.5 or 2.0 μM, CSL 0.5 or 1.0 μM, 20 h. As to the method:
Immunoblot analysis. Proteins prepared from cells at the indicated time points using RIPA buffer and 75 μg were separated on SDS-PAGE followed by immunoblot analysis using the antibodies indicated. Antibodies used were as follows: anti-JNK (Santa Cruz), phospho-JNK (Promega Corp.; Madison, Wis.), phospho c-Jun (Cell Signaling Technology, Inc.; Danvers, Mass.), c-Jun (Santa Cruz Biotechnology, Inc.; Santa Cruz, Calif.) and Caspase 8 (BD Biosciences; San Jose, Calif.).
The activation of JNK by both compounds was confirmed upon analysis of its substrate c-Jun. SW1 cells were pretreated with the JNK inhibitor SP600125 followed by addition of AIGA (0.5 μM or 2.0 μM) or CSL (0.5 μM or 1.0 μM) for 20 h. Total protein extracts were used to determine the phosphorylation of c-Jun.

Structures are written as SMILES. Like-named read-outs stand apart in the source and are kept apart here.

Regarding `CC(=O)Oc1c2c(c(CC=C(C)C)c3c1C(=O)C1=C[C@@H]4CC5C(C)(C)OC(C/C=C(\C)C(=O)O)(C4=O)[C@@]15O3)OC(C)(CCC=C(C)C)C=C2` (stereo partly drawn) [AIGA, Acetyl isogambogic acid], in the series on normal mouse melanocytes, the “toxicity on normal mouse melanocytes” value is listed as 40%. In series [1], the “toxic effect on human diploid fibroblasts (IMR90)” value is given as “Neither CSL nor AIGA elicited toxic effect”. For the same compound, in series [2], the “AP1/c-Jun transcriptional activity (TRE-Luc)” value is “stronger activation of c-Jun transcription” and the “dose from which c-Jun transcriptional activity is induced” value was not below 0.1 µM. The IC50 in series [3] was approximately 500 nM. In addition, the c-Jun phosphorylation entry in the series on phosphorylation of c-Jun was “efficiently induced c-Jun phosphorylation”.

Turning to `CC1=C(O)C(=O)C=C2C1=CC=C1[C@@]2(C)CC[C@@]2(C)[C@@H]3C[C@](C)(C(=O)O)CC[C@]3(C)CC[C@]12C` [Celastrol], the “toxicity on normal mouse melanocytes” value with normal mouse melanocytes was 10%. Further, in series [1] (data not shown), the “toxic effect on human diploid fibroblasts (IMR90)” value is listed as “Neither CSL nor AIGA elicited toxic effect”. For the same compound, in series [2], the “AP1/c-Jun transcriptional activity (TRE-Luc)” value was “stronger activation of c-Jun transcription” and the “dose from which c-Jun transcriptional activity is induced” value was not below 0.01 µM. In series [3], the IC50 is approximately 50 nM. In addition, the c-Jun phosphorylation result in the series with phosphorylation of c-Jun was “efficiently induced c-Jun phosphorylation, with CSL being more potent”.
